biological target: T1, recombinant human CL receptor/RAMP1 (CGRP receptor) (Homo sapiens (Human), UniProt O60894+Q16602); assay: Recombinant receptor functional assay (Assay B), cAMP HTRF; type: cell-based; conditions: Assay B: HEK 293 cells, 2,000 cells/well, human α-CGRP 1.2 nM, cAMP inflection point
Procedure: RECOMBINANT RECEPTOR: Human CL receptor (Genbank accession number L76380) was subcloned into the expression vector pIREShyg2 (BD Biosciences Clontech) as a 5′NheI and 3′ PmeI fragment. Human RAMP1 (Genbank accession number AJ001014) was subcloned into the expression vector pIRESpuro2 (BD Biosciences Clontech) as a 5′NheI and 3′NotI fragment. HEK 293 cells (human embryonic kidney cells; ATCC #CRL-1573) were cultured in DMEM with 4.5 g/L glucose, 1 mM sodium pyruvate and 2 mM glutamine supplemented with 10% fetal bovine serum (FBS), 100 units/mL penicillin and […] streptomycin, and maintained at 37° C. and 95% humidity. Cells were subcultured by treatment with 0.25% trypsin with 0.1% EDTA in HBSS. Stable cell line generation was accomplished by co-transfecting 10 μg of DNA with 30 μg Lipofectamine 2000 (Invitrogen) in 75 cm^2 flasks. CL receptor and RAMP1 expression constructs were co-transfected in equal amounts. Twenty-four hours after transfection the cells were diluted and selective medium (growth medium+300 μg/mL hygromycin and 1 μg/mL puromycin) was added the following day. A clonal cell line was generated by single cell deposition utilizing a FACS Vantage SE (Becton Dickinson). Growth medium was adjusted to 150 μg/mL hygromycin and 0.5 μg/mL puromycin for cell propagation.
RECOMBINANT RECEPTOR FUNCTIONAL ASSAY (Assay B): Cells were resuspended in DMEM/F12 (Hyclone) supplemented with 1 g/L BSA and 300 μM isobutyl-methylxanthine. Cells were then plated in a 384-well plate (Proxiplate Plus 384; 509052761; Perkin-Elmer) at a density of 2,000 cells/well and incubated with antagonist for 30 min at 37° C. Human α-CGRP was then added to the cells at a final concentration of 1.2 nM and incubated an additional 20 min at 37° C. Following agonist stimulation, the cells were processed for cAMP determination using the two-step procedure according to the manufacturer's recommended protocol (HTRF cAMP dynamic 2 assay kit; 62AM4PEC; Cisbio). Raw data were transformed into concentration of cAMP using a standard curve then dose response curves were plotted and inflection point (IP) values were determined

T1 sequence (Q16602 23-461): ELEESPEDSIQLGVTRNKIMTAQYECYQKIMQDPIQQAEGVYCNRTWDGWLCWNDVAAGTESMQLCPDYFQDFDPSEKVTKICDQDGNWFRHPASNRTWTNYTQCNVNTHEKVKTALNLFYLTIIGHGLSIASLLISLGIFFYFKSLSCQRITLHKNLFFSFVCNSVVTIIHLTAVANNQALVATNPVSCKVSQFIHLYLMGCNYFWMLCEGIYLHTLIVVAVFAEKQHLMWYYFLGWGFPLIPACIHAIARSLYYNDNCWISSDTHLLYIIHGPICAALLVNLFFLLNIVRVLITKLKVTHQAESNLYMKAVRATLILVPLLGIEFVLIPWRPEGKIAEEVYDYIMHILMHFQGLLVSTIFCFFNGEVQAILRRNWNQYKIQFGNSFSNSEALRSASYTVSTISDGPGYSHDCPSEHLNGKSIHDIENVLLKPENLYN
T1 sequence (O60894 27-148): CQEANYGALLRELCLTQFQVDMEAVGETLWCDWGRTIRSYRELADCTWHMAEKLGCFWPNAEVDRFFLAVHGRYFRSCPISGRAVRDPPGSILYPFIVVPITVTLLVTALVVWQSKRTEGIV

| SMILES | IC50 |
| --- | --- |
| O=C(NC1CC(c2ccccc2)Cc2cccnc21)c1cnc2c(c1)C[C@@]1(C2)C(=O)Nc2ncccc21 (single isomer, unassigned; isomer a) [5 isomer A] | 22 nM |
| O=C(NC1CC(c2ccccc2)Cc2cccnc21)c1cnc2c(c1)C[C@]1(C2)C(=O)Nc2ncccc21 (single isomer, unassigned; isomer b) [5 isomer B] | 4600 nM |
| O=C(NC1CC(c2ccccc2)Cc2cccnc21)c1cnc2c(c1)C[C@@]1(C2)C(=O)Nc2ncccc21 (single isomer, unassigned; isomer a) [6 isomer A] | 78 nM |
| O=C(NC1CC(c2ccccc2)Cc2cccnc21)c1cnc2c(c1)C[C@]1(C2)C(=O)Nc2ncccc21 (single isomer, unassigned; isomer b) [6 isomer B] | 150 nM |

Next, values leading:

| IC50 | SMILES |
| --- | --- |
| 65 nM | N[C@H]1c2cccnc2[C@@H](NC(=O)c2cnc3c(c2)C[C@@]2(C3)C(=O)Nc3ncccc32)CC[C@H]1c1cccc(F)c1F [Example 4, (6S)—N-[(5R,6S,9S)-5-Amino-6-(2,3-difluorophenyl)-6,7,8,9-tetrahydro-5H-cyclohepta[b]pyridin-9-yl]-2′-oxo-1′,2′,5,7-tetrahydrospiro[cyclopenta[b]pyridine-6,3′-pyrrolo[2,3-b]pyridine]-3-carboxamide] |
| 0.93 nM | N[C@@H]1c2cccnc2[C@H](NC(=O)c2cnc3c(c2)C[C@@]2(C3)C(=O)Nc3ncccc32)CC[C@H]1c1cccc(F)c1F [Example 1, (6S)—N-[(5S,6S,9R)-5-Amino-6-(2,3-difluorophenyl)-6,7,8,9-tetrahydro-5H-cyclohepta[b]pyridin-9-yl]-2′-oxo-1′,2′,5,7-tetrahydrospiro[cyclopenta[b]pyridine-6,3′-pyrrolo[2,3-b]pyridine]-3-carboxamide] |
| 6.3 nM | N[C@H]1c2cccnc2[C@H](NC(=O)c2cnc3c(c2)C[C@@]2(C3)C(=O)Nc3ncccc32)CC[C@H]1c1cccc(F)c1F [Example 3, (6S)—N-[(5R,6S,9R)-5-Amino-6-(2,3-difluorophenyl)-6,7,8,9-tetrahydro-5H-cyclohepta[b]pyridin-9-yl]-2′-oxo-1′,2′,5,7-tetrahydrospiro[cyclopenta[b]pyridine-6,3′-pyrrolo[2,3-b]pyridine]-3-carboxamide] |
| 380 nM | O=C(N[C@H]1CC[C@H](c2cccc(F)c2F)Cc2cccnc21)c1cnc2c(c1)C[C@@]1(C2)C(=O)Nc2ncccc21 [Example 7A, (S)—N-((6S,9S)-6-(2,3-difluorophenyl)-6,7,8,9-tetrahydro-5H-cyclohepta[b]pyridin-9-yl)-2′-oxo-1′,2′,5,7-tetrahydrospiro[cyclopenta[b]pyridine-6,3′-pyrrolo[2,3-b]pyridine]-3-carboxamide] |
| 4.5 nM | O=C(N[C@@H]1CC[C@@H](c2cccc(F)c2F)Cc2cccnc21)c1cnc2c(c1)C[C@@]1(C2)C(=O)Nc2ncccc21 [Example 7B, (S)—N-((6R,9R)-6-(2,3-difluorophenyl)-6,7,8,9-tetrahydro-5H-cyclohepta[b]pyridin-9-yl)-2′-oxo-1′,2′,5,7-tetrahydrospiro[cyclopenta[b]pyridine-6,3′-pyrrolo[2,3-b]pyridine]-3-carboxamide] |
| 290 nM | N[C@@H]1c2cccnc2[C@@H](NC(=O)c2cnc3c(c2)C[C@@]2(C3)C(=O)Nc3ncccc32)CC[C@H]1c1cccc(F)c1F [Example 2, (6S)—N-[(5S,6S,9S)-5-Amino-6-(2,3-difluorophenyl)-6,7,8,9-tetrahydro-5H-cyclohepta[b]pyridin-9-yl]-2′-oxo-1′,2′,5,7-tetrahydrospiro[cyclopenta[b]pyridine-6,3′-pyrrolo[2,3-b]pyridine]-3-carboxamide] |

biological target: T1, recombinant human CL receptor/RAMP1 (CGRP receptor); assay: Recombinant receptor functional assay (Assay C), cAMP HTRF; type: cell-based; conditions: Assay C: HEK 293 cells, 3,500 cells/well, human α-CGRP 1 nM, cAMP inflection point
Procedure: Human RAMP1 (Genbank accession number AJ001014) was subcloned into the expression vector pIRESpuro2 (BD Biosciences Clontech) as a 5′NheI and 3′NotI fragment. […] Cells were subcultured by treatment with 0.25% trypsin with 0.1% EDTA in HBSS. Stable cell line generation was accomplished by co-transfecting 10 μg of DNA with 30 μg Lipofectamine 2000 (Invitrogen) in 75 cm^2 flasks. CL receptor and RAMP1 expression constructs were co-transfected in equal amounts. Twenty-four hours after transfection the cells were diluted and selective medium (growth medium+300 μg/mL hygromycin and 1 μg/mL puromycin) was added the following day. A clonal cell line was generated by single cell deposition utilizing a FACS Vantage SE (Becton Dickinson). Growth medium was adjusted to 150 μg/mL hygromycin and 0.5 μg/mL puromycin for cell propagation.

| IC50 | SMILES |
| --- | --- |
| 1100 nM | O=C(NC1COC(c2ccccc2)Cc2cccnc21)c1cnc2c(c1)C[C@@]1(C2)C(=O)Nc2ncccc21 (single isomer, unassigned; isomer c) [9 isomer C] |
| 1100 nM | O=C(NC1COC(c2ccccc2)Cc2cccnc21)c1cnc2c(c1)C[C@@]1(C2)C(=O)Nc2ncccc21 (single isomer, unassigned; isomer b) [9 isomer B] |
| 1900 nM | O=C(NC1COC(c2ccccc2)Cc2cccnc21)c1cnc2c(c1)C[C@@]1(C2)C(=O)Nc2ncccc21 (single isomer, unassigned; isomer a) [9 isomer A] |

Source: patent US9227973B2, “Pyridine CGRP receptor antagonists” (Merck Sharp & Dohme Corp., priority 2012, dated 2016)
